Values joined by “and” are separate entries in the source; they are usually repeats but may differ in a detail not shown here. Identical values can stand only once.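 Step 1: Grow cells in 96-well plates. Step 2: Expose to compound for 48 hours at 5 concentrations. Step 3: Interpolate endpoints linearly; if unreached, use highest concentration. The concentration for 50% growth inhibition is given as GI50. TGI: concentration producing complete growth inhibition.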
How the values were obtained:
Assay in all cases: NCI-60 cell line screen, 48 h
[1] = tested on: A549 NSCLC
[2] = tested on: ACHN renal
[3] = tested on: CAKI-1 renal
[4] = tested on: MCF7 breast
[5] = tested on: MDA-MB-231 breast
[6] = tested on: NCI-H460 lung
[7] = tested on: OVCAR-3 ovarian
[8] = tested on: RPMI-8226 leukemia
[9] = tested on: SF-268 CNS
[10] = tested on: SF-295 CNS
[11] = tested on: SN12C renal
[12] = tested on: SR leukemia
[13] = tested on: HL-60(TB) leukemia
[14] = tested on: SNB-75 CNS

Structure (SMILES)	TGI [1]	TGI [2]	TGI [3]	TGI [4]	TGI [5]	TGI [6]	TGI [7]	TGI [8]	TGI [9]	TGI [10]	TGI [11]	TGI [12]	TGI [13]	TGI [14]	GI50 [13]	GI50 [5]	GI50 [6]	GI50 [9]	GI50 [11]	GI50 [14]
CCOC(=O)CNC(=O)C(CSC(=O)N(O)c1ccc(Cl)cc1)NC(=O)CCC(N)C(=O)OCC (stereo unspecified)	> 50 µM	> 50 µM	> 50 µM	> 50 µM	> 50 µM	> 50 µM	> 50 µM	46 µM	> 50 µM	> 50 µM	> 50 µM	> 50 µM								
COC(=O)C(CCSC)NC(=O)CNC(=O)CSc1nnc(COc2ccc(Cl)cc2)n1-c1ccccc1 (stereo unspecified)	> 100 µM	30.7 µM		39.6 µM	29.4 µM	31.7 µM		59.7 µM	32.7 µM		32.4 µM		38.3 µM	36.3 µM						
O=C1Cc2c([nH]c3ccc(Br)cc23)-c2cc(O)c(O)cc2N1	> 100 µM	> 100 µM	> 100 µM	> 100 µM	> 100 µM	> 100 µM	> 100 µM	> 100 µM	> 100 µM	> 100 µM	> 100 µM			> 100 µM						
COc1c(=O)cc2cc[nH]c3ccn(C)c1c23	> 100 µM	> 100 µM	> 100 µM	> 100 µM	> 100 µM	> 100 µM	> 100 µM	> 100 µM	> 100 µM	> 100 µM	> 100 µM	> 100 µM		> 100 µM						
CC(C)=CCN1CC(C)C(=O)Nc2ccccc21 (stereo unspecified)	> 100 µM	> 100 µM	> 100 µM	> 100 µM	> 100 µM	> 100 µM	> 100 µM	> 100 µM	> 100 µM	> 100 µM	> 100 µM	> 100 µM	> 100 µM							
CC1(C)CC[C@]2(C)CC[C@]3(C)C(=CC[C@@H]4[C@@]5(C)CCC(=O)C(C)(C)[C@@H]5[C@H](O)C[C@]43C)[C@@H]2C1	54.3 µM	30.6 µM	33.7 µM	35.1 µM	23.7 µM	33.9 µM	31 µM	53.2 µM	32 µM	32.3 µM	29.5 µM		> 100 µM							
Cc1ccc2nc(N/N=C/c3sccc3C)cc(C)c2c1	> 100 µM	> 100 µM	> 100 µM	> 100 µM	62.2 µM		> 100 µM		> 100 µM		> 100 µM		> 100 µM	> 100 µM						
CC(C)(C)C1=CC(C)(n2[nH]c(=O)n(-c3ccccc3)c2=O)C=C(C(C)(C)C)C1=O	> 100 µM	> 100 µM	> 100 µM	> 100 µM	> 100 µM	> 100 µM		> 100 µM	> 100 µM	> 100 µM	> 100 µM			> 100 µM						
COc1ccc2c(c1)c1c(n2CCN(C)C)-c2ccccc2CC1	29.5 µM	30 µM	27.6 µM	35.1 µM	27.2 µM	30.8 µM	30.9 µM	45 µM	32.7 µM	30.6 µM	28.1 µM			26.6 µM						
COc1cc(O)c2c(=O)c(O)c(-c3ccc(O)c(OC)c3)oc2c1	> 100 µM		> 100 µM	> 100 µM	> 100 µM	> 100 µM	> 100 µM	> 100 µM	> 100 µM	> 100 µM	> 100 µM		> 23 µM	> 20.5 µM						
COc1ccc(N2C(=O)/C(=C\c3cc(OC)c(OC)c(OC)c3)SC2c2ccccc2)cc1 (stereo unspecified)	> 100 µM	> 100 µM	> 100 µM	> 100 µM	> 100 µM	> 100 µM	> 100 µM	> 100 µM	> 100 µM	> 100 µM	> 100 µM	> 100 µM	> 100 µM							
O=[N+]([O-])/C(C(Cl)=C(Cl)Cl)=C(/Cl)SCc1ccccc1	32.7 µM	9.06 µM	12.5 µM	16 µM	4.32 µM	31.2 µM	12.1 µM		44.6 µM	69.1 µM	12.9 µM		0.437 µM	24.9 µM						
CC1(C)CNCC(C)(OCc2ccccc2)C(=O)NC(C)(C)CNCC(C)(OCc2ccccc2)C(=O)N1 (stereo unspecified)	> 10 µM	> 10 µM		> 10 µM	> 10 µM	> 10 µM	> 10 µM		> 10 µM	> 10 µM	> 10 µM			> 10 µM						
CCOC(=O)/C=C/CCO[Si](C)(C)C(C)(C)C	> 100 µM	> 100 µM	> 100 µM	> 100 µM	> 100 µM	> 100 µM	> 100 µM	> 100 µM	> 100 µM	> 100 µM	> 100 µM	> 100 µM		> 100 µM						
C[N+]12C=CC=C1C(N1CCCC1)c1scc(-c3ccccc3)c12 (stereo unspecified)	> 100 µM		> 100 µM	71.7 µM	> 100 µM		87.8 µM	> 100 µM	> 100 µM	> 100 µM	70 µM	37.4 µM		47.8 µM						
COc1ccc(Oc2cccc(C3C4C(=O)N(c5ccc(C)c(Cl)c5)C(=O)C4ON3C(C(N)=O)c3ccccc3)c2)cc1 (stereo unspecified)	> 50 µM	> 50 µM	> 50 µM	47.9 µM	> 50 µM	> 50 µM	> 50 µM		> 50 µM	> 50 µM	29.3 µM	35.6 µM	> 50 µM	26.2 µM						
N#Cc1c2c(c(N)oc1=O)C(c1ccccc1)CC(=O)N2 (stereo unspecified)	> 100 µM	> 100 µM	> 100 µM	> 100 µM	> 100 µM	> 100 µM	> 100 µM	> 100 µM	> 100 µM	> 100 µM	> 100 µM		> 100 µM	> 100 µM						
O=C(NC1CCN(Cc2ccccc2)CC1)c1ccc(I)cc1	> 100 µM	> 100 µM	> 100 µM		> 100 µM	> 100 µM	> 100 µM	> 100 µM	> 100 µM	> 100 µM	> 100 µM	> 100 µM	> 100 µM							
O=C(c1cccs1)N(C(=S)OCCOc1ccccc1)c1ccccc1	> 100 µM	72.1 µM	83.8 µM	44.6 µM	61.9 µM	> 100 µM	41.6 µM	53.9 µM	> 100 µM	71 µM	55.5 µM		48 µM	54.7 µM						
Oc1ccc2cc(Br)ccc2c1-c1c(O)ccc2ccc(Br)cc12	30.4 µM	28 µM	34 µM	28.8 µM	21.6 µM	15.3 µM	27.8 µM		41.1 µM	30.6 µM	24.3 µM	52.4 µM	38.2 µM							
O=[N+]([O-])c1ccc(OC2CC3C4C=CC3C2C4)c([N+](=O)[O-])c1 (stereo unspecified)	> 100 µM	> 100 µM	> 100 µM	> 100 µM	74 µM and > 31.6 µM	> 100 µM	> 100 µM		> 100 µM	49.9 µM and > 31.6 µM	> 100 µM		> 100 µM	69.7 µM and > 31.6 µM	69.7 µM	11.3 µM and > 31.6 µM	> 100 µM	> 100 µM	86.4 µM and > 31.6 µM	34.5 µM
CC1=NN(c2nc(N)nc(/C(C#N)=C\c3csc([N+](=O)[O-])c3)n2)C(C)(C)C1		> 100 µM	> 100 µM	> 100 µM	64 µM	> 100 µM	78.9 µM	> 100 µM	53.4 µM	> 100 µM		> 100 µM	> 100 µM							
CC1=C(O)C2=C(C(=O)C1=O)[C@@H](C)CC[C@@H]2[C@@H](C)C/C=C/C(C)(C)O	> 100 µM	98 µM	> 100 µM	> 100 µM	> 100 µM	> 100 µM	79.2 µM	56.3 µM	> 100 µM	> 100 µM	> 100 µM	80.4 µM	71.3 µM							
COc1ccc(/C=N/n2c(C)n[nH]c2=O)c(OC)c1	> 100 µM	> 100 µM	> 100 µM	> 100 µM	> 100 µM	> 100 µM	> 100 µM	> 100 µM	> 100 µM	> 100 µM	> 100 µM			> 100 µM						
Oc1[nH]c2ccccc2c1N=NC(=S)Nc1ccccc1Cl	23.8 µM	17.2 µM	8.78 µM	33.4 µM	32 µM	52.2 µM	37.6 µM		56.9 µM	20.9 µM	> 100 µM	1.16 µM	18.7 µM	16.1 µM						
CCOC(=O)c1sc2nc(SC)nc3c2c1NCN3c1ccc2c(c1)OCO2	25.4 µM	26 µM	> 100 µM	> 100 µM	43 µM		50 µM	> 100 µM	18 µM	53.3 µM	> 100 µM	> 100 µM	> 100 µM							
COC(=O)[C@]1(NC(=O)c2ccccc2)C[C@H]1C=O	> 100 µM	> 100 µM	> 100 µM	> 100 µM	> 100 µM	77 µM	> 100 µM	> 100 µM	> 100 µM	> 100 µM	> 100 µM	53.9 µM		> 100 µM						
